Columns and labels:
Format in all cases: in vivo
[1] = tested on: APESV (Apera spica-venti); assay: greenhouse pre-emergence herbicidal test, APESV; conditions: scale from 0 to 100
Excerpt: (§1) The culture containers used were plastic flowerpots containing loamy sand with approximately 3.0% of humus as the substrate. The seeds of the test plants were sown separately for each species.
(§2) For the pre-emergence treatment, the active ingredients, which had been suspended or emulsified in water, were applied directly after sowing by means of finely distributing nozzles. The containers were irrigated gently to promote germination and growth and subsequently covered with transparent plastic hoods until the plants had rooted. This cover caused uniform germination of the test plants, unless this has been impaired by the active ingredients.
(§3) Depending on the species, the plants were kept at 10-25° C. or 20-35° C. The test period extended over 2 to 4 weeks. During this time, the plants were tended, and their response to the individual treatments was evaluated.
(§4) Evaluation was carried out using a scale from 0 to 100. 100 means no emergence of the plants, or complete destruction of at least the aerial moieties, and 0 means no damage, or normal course of growth. A good herbicidal activity is given at values of at least 70 and a very good herbicidal activity is given at values of at least 85.

[2] = tested on: ECHCG (Echinochloa crus-galli); assay: greenhouse post-emergence herbicidal test, ECHCG; conditions: scale from 0 to 100
Excerpt: as §1
(§5) For the post-emergence treatment, the test plants were first grown to a height of 3 to 15 cm, depending on the plant habit, and only then treated with the active ingredients which had been suspended or emulsified in water. For this purpose, the test plants were either sown directly and grown in the same containers, or they were first grown separately as seedlings and transplanted into the test containers a few days prior to treatment.
as §3, §4

[3] = tested on: AMARE (Amaranthus retoflexus); assay: greenhouse post-emergence herbicidal test, AMARE; conditions: 1.0 kg/ha, scale from 0 to 100
Excerpt: as §1, §5, §3, §4

SETVI (Setaria viridis) = assay: greenhouse post-emergence herbicidal test, SETVI; conditions: 1.0 kg/ha, scale from 0 to 100
Excerpt: as §1, §5, §3, §4

[4] = tested on: ALOMY (Alopecurus myosuroides); assay: greenhouse pre-emergence herbicidal test, ALOMY; conditions: scale from 0 to 100
Excerpt: as §1, §2, §3, §4

[5] = tested on: ECHCG (Echinochloa crus-galli); assay: greenhouse pre-emergence herbicidal test, ECHCG; conditions: scale from 0 to 100
Excerpt: as §1, §2, §3, §4

[6] = tested on: CHEAL (Chenopodium album); assay: greenhouse post-emergence herbicidal test, CHEAL; conditions: 1.0 kg/ha, scale from 0 to 100
Excerpt: as §1, §5, §3, §4

SETFA (Setaria faberi) = assay: greenhouse pre-emergence herbicidal test, SETFA; conditions: 1.0 kg/ha, scale from 0 to 100
Excerpt: as §1, §2, §3, §4

[7] = tested on: AMARE (Amaranthus retoflexus); assay: greenhouse pre-emergence herbicidal test, AMARE; conditions: 1.0 kg/ha, scale from 0 to 100
Excerpt: as §1, §2, §3, §4

[8] = tested on: APESV (Apera spica-venti); assay: greenhouse post-emergence herbicidal test, APESV; conditions: 0.5 kg/ha, scale from 0 to 100
Excerpt: as §1, §5, §3, §4

[9] = tested on: ALOMY (Alopecurus myosuroides); assay: greenhouse post-emergence herbicidal test, ALOMY; conditions: 0.5 kg/ha, scale from 0 to 100
Excerpt: as §1, §5, §3, §4

Row | Structure (SMILES) | herbicidal activity against APESV ([1]; 1.0 kg/ha) | herbicidal activity against ECHCG ([2]; 1.0 kg/ha) | herbicidal activity against AMARE [3] | herbicidal activity against SETVI (SETVI (Setaria viridis)) | herbicidal activity against ALOMY ([4]; 1.0 kg/ha) | herbicidal activity against ECHCG ([5]; 1.0 kg/ha) | herbicidal activity against CHEAL [6] | herbicidal activity against SETFA (SETFA (Setaria faberi)) | herbicidal activity against AMARE [7] | herbicidal activity against APESV ([1]; 0.5 kg/ha) | herbicidal activity against ECHCG ([2]; 0.5 kg/ha) | herbicidal activity against ALOMY ([4]; 0.5 kg/ha) | herbicidal activity against ECHCG ([5]; 0.5 kg/ha) | herbicidal activity against APESV [8] | herbicidal activity against ALOMY [9]
1 | CN1C(=O)C(C)(Cc2ccccc2)N(C)C(=O)C1Cc1ccccc1C#N (single isomer, unassigned) [Example 1 (main isomer 1), 2-[5-Benzyl-1,4,5-trimethyl-3,6-dioxopiperazine-2-ylmethyl]benzonitrile] | very good herbicidal activity (a very good herbicidal activity is given at values of at least 85) | very good herbicidal activity (a very good herbicidal activity is given at values of at least 85) | very good herbicidal activity (a very good herbicidal activity is given at values of at least 85) | very good herbicidal activity (a very good herbicidal activity is given at values of at least 85) | very good herbicidal activity (a very good herbicidal activity is given at values of at least 85) | very good herbicidal activity (a very good herbicidal activity is given at values of at least 85) | very good herbicidal activity (a very good herbicidal activity is given at values of at least 85) | very good herbicidal activity (a very good herbicidal activity is given at values of at least 85) | very good herbicidal activity (a very good herbicidal activity is given at values of at least 85) | – | – | – | – | – | –
2 | CN1C(=O)C(C)(Cc2ccccc2)N(C)C(=O)C1Cc1ccccc1C#N (single isomer, unassigned) [Example 1 (minor isomer 2), 2-[5-Benzyl-1,4,5-trimethyl-3,6-dioxopiperazine-2-ylmethyl]benzonitrile] | – | – | – | – | – | – | – | – | – | very good herbicidal activity (a very good herbicidal activity is given at values of at least 85) | very good herbicidal activity (a very good herbicidal activity is given at values of at least 85) | very good herbicidal activity (a very good herbicidal activity is given at values of at least 85) | very good herbicidal activity (a very good herbicidal activity is given at values of at least 85) | very good herbicidal activity (a very good herbicidal activity is given at values of at least 85) | very good herbicidal activity (a very good herbicidal activity is given at values of at least 85)

Reference: patent US20100173777A1, “Piperazine Compounds Having Herbicidal Action” (BASF SE, priority 2007, published 2010)
